# According to patent US12391672B2, “Solid forms comprising (S)-4-(4-(4-(((2-(2,6-dioxopiperidin-3-yl)-1-oxoisoindolin-4-yl)oxy)methyl)benzyl)piperazin-1-yl)-3-fluorobenzonitrile and salts thereof, and compositions comprising and methods of using the same” (Celgene Corporation, priority 2019, dated 2025):
# Legend:
# Format in all cases: physicochemical
# [1] = Solubility of polymorphic forms in physiologically relevant media and final pH
# Excerpt: Solubility data of the several polymorphic forms of Compound 1 in physiologically relevant media and the final pH of these solutions are summarized in the following tables.
# [2] = HBr salt solubility in buffers (1 mg/mL slurries, mother liquor by HPLC); settings: all buffers tested
# Method: (§1) The HBr salt was largely insoluble in various buffers when 1 mg/mL slurries were prepared and the mother liquor concentration determined (by HPLC): <0.05 mg/mL in all buffers tested.
# [3] = Dynamic vapor sorption / hygroscopicity
# Method: Projekt Messtechnik (now ProUmid) SPS11-100n. The sample was placed on an aluminum holder on top of a microbalance and allowed to equilibrate at 50% r.h. before starting one of the following pre-defined humidity programs (1 cycle): • hold 2 h at 50% r.h., • decrease humidity −5% r.h. h^−1 for 10 h (i.e., from 50% r.h. to 0% r.h.), • hold 5 h at […]., • increase humidity +5% r.h. h^−1 for 19 h (i.e., from 0% r.h. to 95% r.h.), • hold 5 h at 95% r.h., • decrease humidity −5% r.h. h^−1 for 9 h (i.e., from 95% r.h. to 50% r.h.), • hold 2 h at 50% r.h. or • hold 2 h at 50% r.h., • increase humidity +5% r.h. h^−1 for 9 h (i.e., from 50% r.h. to 95% r.h.), • hold 5 h at 95% r.h., • decrease humidity −5% r.h. h^−1 for 19 h (i.e., from 95% r.h. to 0% r.h.), • hold 5 h at 0% r.h., • increase humidity +5% r.h. h^−1 for 10 h (i.e., from 0% r.h. to 50% r.h.), • hold 2 h at 50% r.h.
# The hygroscopicity was classified based on the mass gain at 85% r.h. relative to the initial mass as follows: deliquescent (sufficient water adsorbed to form a liquid), very hygroscopic (mass increase of […]), hygroscopic (mass increase of <15% but ≥2%), slightly hygroscopic (mass increase of <2% but ≥0.2%), or non-hygroscopic (mass increase of <0.2%).
# [4] = Solid state stability under accelerated storage conditions; settings: 40° C./75% RH, 80° C. and ambient light/temperature for 1 week
# Method: Form A was not isolated directly as a wet cake but formed only upon drying of Form E in polymorphism studies. […] Small quantities of Form A were generated by dissolving a crude Compound 1 in MEK at high temperature, followed by fast cooling to room temperature, filtration and drying. DSC and TGA data were obtained for samples of Form A and following storage for 1 week at 60° C. and 60° C./75% RH. […] TGA analysis confirmed that this broad endotherm was most likely due to moisture uptake under the accelerated storage conditions. Most of the weight loss of 0.82% in this sample occurred in a single step at less than 75° C. By contrast, weigh loss was a two-step process at the initial time point. […] The residual solvent initially present in the sample was lost upon storage of the sample at 60° C. (0.13% weight loss between 25 to 150° C.).
# Form B could be obtained from a process involving methyl acetate. […] HPLC traces were taken of the samples of Form B and following storage for 2 week at 60° C. and 60° C./75% RH. […] Several small degradation products were seen to grow especially in the sample stored at 60° C. Chiral instability was also observed in the sample stored at 60° C./75% RH.
# Physical stability: Visually, all samples of Form K were white colored powder with no apparent change in color in the samples stored under accelerated conditions (40° C., 40° C./75% RH, 60° C., 60° C./75% RH and sample stored in light chamber in clear vials exposed to light and covered in aluminum foil) for 14 d relative to the sample stored refrigerated and under ambient conditions.
# Solid state chemical stability: HPLC analysis were performed on Form K samples stored under the accelerated stability conditions. […] Based on the HPLC analysis data, there is a measurable but small change in the chemical stability of Form K under the accelerated conditions of temperature, humidity and exposure to light over the 14 d period.
# Solid state chiral stability: Chiral stability of Form K samples stored under accelerated stability conditions was tested. There was ˜2.9% of the R-enantiomer (97.1 area % of the active S-isomer) in the initial sample. […]
# The chiral purity (area % of S-isomer) remained […] under the accelerated stability conditions.
# [5] = Competitive slurry and slurry stability experiments
# Method: Form B was obtained at room temperature while form C was obtained at 45° C. in acetone alone.
# as §1
smiles,measurement,setting,value
Br.N#Cc1ccc(N2CCN(Cc3ccc(COc4cccc5c4CN([C@H]4CCC(=O)NC4=O)C5=O)cc3)CC2)c(F)c1,Solubility,[1]; FaSSIF,<LOQ
same,Solubility,[1]; FeSSiF,0.111 mg/mL
same,Solubility,[1]; SGF with pepsin,0.077 mg/mL
same,Solubility,"[1]; Water, t0","0.301(t0), mg/ml"
same,Solubility,"[1]; Water, t24",0.212 mg/mL
same,Solubility,[1]; pH 1 buffer HC1/NaC1,0.018 mg/mL
same,Solubility,[1]; pH 3 buffer (phosphate),0.032 mg/mL
same,Solubility,[1]; pH 4 buffer (acetate),0.038 mg/mL
same,Solubility,[1]; pH 5 buffer (acetate),0.004 mg/mL
same,Final pH,[1]; solubility sample in FaSSIF,6.40
same,Final pH,[1]; solubility sample in FeSSiF,5.16
same,Final pH,[1]; solubility sample in SGF with pepsin,1.15
same,Final pH,[1]; solubility sample in Water,4.53
same,Final pH,[1]; solubility sample in pH 1 buffer HC1/NaC1,0.95
same,Final pH,[1]; solubility sample in pH 3 buffer (phosphate),3.11
same,Final pH,[1]; solubility sample in pH 4 buffer (acetate),4.18
same,Final pH,[1]; solubility sample in pH 5 buffer (acetate),5.08
same,mother liquor concentration in buffers,[2],< 0.05 mg/mL
same,hygroscopicity,"[3]; DVS, class by mass gain at 85% r.h.",slightly hygroscopic (slightly hygroscopic (mass increase of <2% but ≥0.2%))
same,solid form after DVS cycle,[3]; after the DVS humidity cycle,remains as Form A
same,DVS mass increase,[3]; relative humidity from about 0% to about 95%,about 0.7%
same,DVS mass increase,[3]; relative humidity from about 5% to about 90%,about 0.7%
same,DVS mass increase,[3]; up to 90% RH,~0.69%
same,physical (XRPD) and chemical (HPLC) stability,[4],both physically and chemically stable
same,disproportionation in water,[5]; slurried in water for ~24 h,did not appear to disproportionate back to the free base
same,slurry in acetone/water mixtures (XRPD),[5]; various water activities,no hydrate formation evident
